Measured values: EPA's ToxValDB 9.5 (doi:10.2903/j.efsa.2020.6338)

Assays:
Bovidae = conditions: subchronic; duration: 42 days; oral; diet; M; no effects
Gallus gallus = conditions: subchronic; duration: 36 days; oral; diet; M; Chicken; no effects
Sus scrofa = conditions: subchronic; duration: 42 days; oral; diet; M/F; Not specified; no effects

Row | Structure (SMILES) | LEL (Bovidae) | LEL (Gallus gallus) | LEL (Sus scrofa)
1 | Cc1csc(C(C)C)n1 [2-Isopropyl-4-methylthiazole] | 15 mg/kg-day | 15 mg/kg-day | 15 mg/kg-day
2 | COc1ccc2ccccc2c1 [2-Methoxynaphthalene] | 12 mg/kg-day | 12 mg/kg-day | 12 mg/kg-day
3 | OCCc1ccccc1 [2-Phenylethanol] | 125 mg/kg-day | 125 mg/kg-day | 125 mg/kg-day
4 | CC(=O)OCCC(C)C [3-Methylbutyl acetate] | 1250 mg/kg-day | 1250 mg/kg-day | 1250 mg/kg-day
5 | CCCCCCC(=O)OCC [Ethyl heptanoate] | 318 mg/kg-day | 318 mg/kg-day | 318 mg/kg-day
6 | C=CC(C)(O)CCC=C(C)C (configuration not stated) [Linalool] | 300 mg/kg-day | 300 mg/kg-day | 300 mg/kg-day
7 | O=C1CCCCCCCCCCCCCCO1 [Pentadecan-15-olide] | 100 mg/kg-day | 100 mg/kg-day | 100 mg/kg-day
8 | CC(C)CC(=O)OCCc1ccccc1 [Phenethyl isovalerate] | 300 mg/kg-day | 300 mg/kg-day | 300 mg/kg-day
9 | CC1CCC(C(C)(C)S)C(=O)C1 (configuration not stated) [p-Mentha-8-thiol-3-one] | 5 mg/kg-day | 5 mg/kg-day | 5 mg/kg-day
